Experimental data reported in ChEMBL document CHEMBL1201862, “PubChem BioAssay data set” (2004).
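Results reflect a 48-hour exposure of cells in 96-well plates to compound at five concentrations. GI50 marks 50% less growth.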 Active and inactive are the calls of the source. Rule as the data show it: active = GI50 up to about 1.1 µM and inactive = higher.

Key:
Assay in all cases: NCI-60 cell line screen, 48 h
A549 = tested on: A549
CAKI-1 = tested on: CAKI-1
EKVX = tested on: EKVX
HL-60 = tested on: HL-60
KM12 = tested on: KM12
LOX IMVI = tested on: LOX IMVI
MDA-MB-435 = tested on: MDA-MB-435
MDA-N = tested on: MDA-N
NCI-H460 = tested on: NCI-H460
OVCAR-5 = tested on: OVCAR-5
RPMI-8226 = tested on: RPMI-8226
SF-268 = tested on: SF-268
SK-MEL-28 = tested on: SK-MEL-28
SK-MEL-5 = tested on: SK-MEL-5
SNB-19 = tested on: SNB-19
SR = tested on: SR
UACC-257 = tested on: UACC-257
UO-31 = tested on: UO-31
SN12C = tested on: SN12C
T47D = tested on: T47D

Row | Compound | GI50 (A549) | GI50 (CAKI-1) | GI50 (EKVX) | GI50 (HL-60) | GI50 (KM12) | GI50 (LOX IMVI) | GI50 (MDA-MB-435) | GI50 (MDA-N) | GI50 (NCI-H460) | GI50 (OVCAR-5) | GI50 (RPMI-8226) | GI50 (SF-268) | GI50 (SK-MEL-28) | GI50 (SK-MEL-5) | GI50 (SNB-19) | GI50 (SR) | GI50 (UACC-257) | GI50 (UO-31) | GI50 (SN12C) | GI50 (T47D)
1 | Cc1ccc(NC(S)=Nc2c(C)n(C)n(-c3ccccc3)c2=O)cc1 | > 100 µM (inactive) | > 100 µM (inactive) | > 100 µM (inactive) | 32.2 µM (inactive) | > 100 µM (inactive) | > 100 µM (inactive) | > 100 µM (inactive) | > 100 µM (inactive) | > 100 µM (inactive) | > 100 µM (inactive) | > 100 µM (inactive) | > 100 µM (inactive) | > 100 µM (inactive) | > 100 µM (inactive) | > 100 µM (inactive) | > 100 µM (inactive) | > 100 µM (inactive) | > 100 µM (inactive) | – | –
2 | CNC(=S)/C(=N\Nc1[nH]cnc1C(N)=O)C(N)=S | > 84.1 µM (inactive) | 1.71 µM (inactive) | 22.3 µM (inactive) | – | 4.09 µM (inactive) | 0.598 µM (active) | 7.03 µM (inactive) | 4.34 µM (inactive) | 5.31 µM (inactive) | > 31.6 µM (inactive) | 1.14 µM (inactive) | 3.18 µM (inactive) | 69.7 µM (inactive) | 11.5 µM (inactive) | 45.3 µM (inactive) | < 0.01 µM (active) | 9.62 µM (inactive) | 1.61 µM (inactive) | 2.44 µM (inactive) | 11.6 µM (inactive)
3 | COC(=O)c1ccc(C)cc1CC1Cc2cccc(C)c2C1=O (stereo not given) | 6.58 µM (inactive) | 10.6 µM (inactive) | 2.94 µM (inactive) | – | 4.08 µM (inactive) | 2.88 µM (inactive) | 1.48 µM (inactive) | 1.87 µM (inactive) | 4.89 µM (inactive) | 14 µM (inactive) | – | 7.98 µM (inactive) | 7.41 µM (inactive) | 3.59 µM (inactive) | 4.4 µM (inactive) | – | 11.7 µM (inactive) | 13.4 µM (inactive) | 10.2 µM (inactive) | 5.85 µM (inactive)
4 | C[C@@H](c1ccccc1)n1c(N)c(C#N)c2ccc([N+](=O)[O-])cc2c1=O | > 100 µM (inactive) | 15.1 µM (inactive) | – | 8.75 µM (inactive) | 16.7 µM (inactive) | 14.2 µM (inactive) | 14.2 µM (inactive) | 23.1 µM (inactive) | 14.5 µM (inactive) | – | – | 29.7 µM (inactive) | 15 µM (inactive) | 16.7 µM (inactive) | 13.6 µM (inactive) | 2.69 µM (inactive) | 18.7 µM (inactive) | 5.12 µM (inactive) | 12 µM (inactive) | 15.7 µM (inactive)
5 | O=C1OCCC[C@H]2O[C@@H](COCc3ccccc3)C[C@@H]12 | > 100 µM (inactive) | > 100 µM (inactive) | – | > 100 µM (inactive) | > 100 µM (inactive) | – | > 100 µM (inactive) | > 100 µM (inactive) | > 100 µM (inactive) | > 100 µM (inactive) | > 100 µM (inactive) | > 100 µM (inactive) | > 100 µM (inactive) | > 100 µM (inactive) | > 100 µM (inactive) | > 100 µM (inactive) | > 100 µM (inactive) | > 100 µM (inactive) | > 100 µM (inactive) | > 100 µM (inactive)
6 | CO[C@]12CC(=O)C3(C(C[C@H]4CC5CC[C@H]6C[C@@H](OC(C)=O)CC[C@]6(OC(C)=O)C5C[C@@]43C)C1)C1C[C@H]3[C@@H]4CC[C@H]5C[C@@H](OC(C)=O)CC[C@]5(OC(C)=O)[C@H]4CC[C@]3(C)C12 (stereo not given in full) | 61.2 µM (inactive) | > 100 µM (inactive) | > 100 µM (inactive) | – | 46.8 µM (inactive) | 89.7 µM (inactive) | 56 µM (inactive) | 98.2 µM (inactive) | 66.5 µM (inactive) | > 100 µM (inactive) | 37.2 µM (inactive) | > 100 µM (inactive) | > 100 µM (inactive) | 24.4 µM (inactive) | 82.8 µM (inactive) | > 100 µM (inactive) | > 100 µM (inactive) | > 100 µM (inactive) | > 100 µM (inactive) | 37 µM (inactive)
7 | C=CC(C)(O)CCC1C(=C)C(O)CC2C(C)(C)CCCC12C (stereo not given) | 22.1 µM (inactive) | 23.5 µM (inactive) | 19.1 µM (inactive) | 14 µM (inactive) | 21.1 µM (inactive) | 19.2 µM (inactive) | 18.6 µM (inactive) | 20.4 µM (inactive) | 16.9 µM (inactive) | 20 µM (inactive) | 20 µM (inactive) | 19.9 µM (inactive) | 18.7 µM (inactive) | 16 µM (inactive) | 18.1 µM (inactive) | – | 19 µM (inactive) | 15.2 µM (inactive) | 18.9 µM (inactive) | 23.5 µM (inactive)
8 | CCOC(=O)c1sc2c(c1OC(=O)c1cc(OC)c(OC)c(OC)c1)c(=O)n(-c1ccccc1)c(=S)n2-c1ccccc1 | > 100 µM (inactive) | > 100 µM (inactive) | 45.5 µM (inactive) | 62.8 µM (inactive) | > 100 µM (inactive) | > 100 µM (inactive) | 79.1 µM (inactive) | > 100 µM (inactive) | 51.5 µM (inactive) | > 100 µM (inactive) | 93.1 µM (inactive) | > 100 µM (inactive) | > 100 µM (inactive) | > 100 µM (inactive) | > 100 µM (inactive) | – | > 100 µM (inactive) | – | 90.2 µM (inactive) | 41.6 µM (inactive)
9 | COc1ccc2c(c1)nc1n2C(c2c(F)cccc2Cl)SC1 (stereo not given) | 4.81 µM (inactive) | 19.1 µM (inactive) | 26.1 µM (inactive) | 1.26 µM (inactive) | 2.76 µM (inactive) | 6.64 µM (inactive) | 0.703 µM (active) | 1.35 µM (inactive) | 3.68 µM (inactive) | > 37.2 µM (inactive) | – | 3.66 µM (inactive) | 5 µM (inactive) | 3.17 µM (inactive) | – | – | 18.2 µM (inactive) | > 20.2 µM (inactive) | > 22.6 µM (inactive) | 3.32 µM (inactive)
10 | CN1C(=O)C(/C=N/NC(=O)c2cccnc2)C(N)N(C)C1=O (stereo not given) | > 100 µM (inactive) | > 100 µM (inactive) | > 100 µM (inactive) | – | > 100 µM (inactive) | – | > 100 µM (inactive) | > 100 µM (inactive) | > 100 µM (inactive) | > 100 µM (inactive) | > 100 µM (inactive) | > 100 µM (inactive) | > 100 µM (inactive) | > 100 µM (inactive) | > 100 µM (inactive) | – | > 100 µM (inactive) | > 100 µM (inactive) | > 100 µM (inactive) | > 100 µM (inactive)
11 | CCOC(=O)c1c(-c2cccc3ccccc23)c(C#N)c(=S)n(C2OC(COC(C)=O)C(OC(C)=O)C(OC(C)=O)C2OC(C)=O)c1C (stereo not given) | > 100 µM (inactive) | – | – | > 100 µM (inactive) | > 100 µM (inactive) | > 100 µM (inactive) | > 100 µM (inactive) | > 100 µM (inactive) | > 100 µM (inactive) | > 100 µM (inactive) | – | > 100 µM (inactive) | > 100 µM (inactive) | > 100 µM (inactive) | > 100 µM (inactive) | > 100 µM (inactive) | > 100 µM (inactive) | 1.32 µM (inactive) | > 100 µM (inactive) | > 100 µM (inactive)
12 | Cc1ccc(NC(=S)NNC(=O)c2cc(-c3ccccc3)nc3ccccc23)cc1 | 11.9 µM (inactive) | 18 µM (inactive) | – | – | 11.1 µM (inactive) | – | 2.81 µM (inactive) | 4.26 µM (inactive) | 18.7 µM (inactive) | 15.4 µM (inactive) | 4.59 µM (inactive) | 15.8 µM (inactive) | 5.96 µM (inactive) | 10.4 µM (inactive) | 16.7 µM (inactive) | 3.18 µM (inactive) | 14.4 µM (inactive) | 12.7 µM (inactive) | 16.2 µM (inactive) | 3.21 µM (inactive)
13 | CN(C)CCNC1=CC(=O)c2c(O)ccc(O)c2C1=O | 10.1 µM (inactive) | 13.9 µM (inactive) | 12.8 µM (inactive) | 1.95 µM (inactive) | 6.35 µM (inactive) | 3.39 µM (inactive) | 1.8 µM (inactive) | 1.97 µM (inactive) | 3.3 µM (inactive) | 14.2 µM (inactive) | 7.52 µM (inactive) | 12.3 µM (inactive) | 12.2 µM (inactive) | 1.67 µM (inactive) | 16 µM (inactive) | – | 2.36 µM (inactive) | 12.4 µM (inactive) | 6.47 µM (inactive) | 9.66 µM (inactive)
14 | NCS(=O)(=O)O | > 100 µM (inactive) | > 100 µM (inactive) | > 100 µM (inactive) | > 100 µM (inactive) | > 100 µM (inactive) | > 100 µM (inactive) | > 100 µM (inactive) | > 100 µM (inactive) | 35.2 µM (inactive) | > 100 µM (inactive) | > 100 µM (inactive) | > 100 µM (inactive) | > 100 µM (inactive) | > 100 µM (inactive) | > 100 µM (inactive) | – | > 100 µM (inactive) | > 100 µM (inactive) | > 100 µM (inactive) | > 100 µM (inactive)
15 | COC(=O)CCC(C)C1CCC2C3C(C[C@H](OC(C)=O)[C@]12C)[C@@]1(C)CCC2(C[C@H]1C[C@H]3OC(C)=O)OOC1(CC[C@]3(C)C4C[C@H](OC(C)=O)[C@]5(C)C(C(C)CCC(=O)OC)CCC5C4[C@H](OC(C)=O)C[C@@H]3C1)OO2 (stereo not given in full) | 91.8 µM (inactive) | 24 µM (inactive) | > 100 µM (inactive) | 38.3 µM (inactive) | > 100 µM (inactive) | > 100 µM (inactive) | > 100 µM (inactive) | > 100 µM (inactive) | 50.7 µM (inactive) | > 100 µM (inactive) | > 100 µM (inactive) | 92 µM (inactive) | > 100 µM (inactive) | > 100 µM (inactive) | > 100 µM (inactive) | 44.3 µM (inactive) | > 100 µM (inactive) | 30.9 µM (inactive) | 83.2 µM (inactive) | –
